According to patent publication US20230181499A1, “Hydroxyureamethyl-Acylfulvene for Treating Brain Cancer or CNS Cancer” (Lantern Pharma Inc., priority 2020, published 2023):

Assays:
[1] = Neuromics in vitro 3D blood-brain barrier model (brain endothelial cells, pericytes, astrocytes); assay type: in vitro ADME, human; conditions: human
Text: (§1) To evaluate the in vivo therapeutic activity of Hydroxyureamethyl-acylfulvene in mice bearing glioblastoma U87-SC cells (without any drug treatment in vitro) were inoculated subcutaneously.
(§2) By way of background, the physically, metabolically and immunologically privileged status of the brain presents diagnostic and therapeutic limitations along with treatment-related neurotoxicity issues. A critical property of any drug for GBM would be its ability to penetrate the blood-brain barrier (BBB). […] In the highly representative Neuromics in vitro 3D model that closely recapitulates the human blood-brain barrier, transport properties of the blood-brain barrier are reflected due to the formation of tight junctions, higher expression of specific carriers, or great cell viability. This 3D in vitro model of the blood-brain barrier created by co-culturing brain endothelial cells with pericytes and astrocytes layered in an insert, improves endothelial cell polarization and enhances the formation of tight junctions, provides better endothelial cell-to-cell contact that is important for barrier development, and prevents the dilution of secreted neurotrophic factors. These conditions collectively lead to the development of an in vitro model that can truly mimic the blood-brain barrier. This assay leverages the novel 3D blood-brain barrier model that allows studying both compound transport across the barrier as well as the effect of compounds on the structure and function of the blood-brain barrier. Along with LP-184 and TMZ, the current standard of care chemotherapeutic for GBM, we also compared the behavior of known positive and negative control agents Antipyrine and Cyclosporin A respectively as benchmarks. […] Apparent blood brain barrier permeability measured for TMZ was 1.72*10-4 cm/s at 30 minutes and for LP-184 was 1.53*10-4 cm/s at 30 minutes, as illustrated in the following graph.

blood-brain barrier = experiment: as above; assay type: in vitro ADME, human; conditions: for blood-brain barrier penetration (in words): in vitro model system
Text: as §1, §2

[2] = system: glioblastoma U87-SC cells; experiment: U87 subcutaneous xenograft tumor model of GBM; assay type: in vivo, mice; conditions: 4 every other day intravenous doses at 4 mg/kg
Text: as §1

GBM neurospheres (M1123) = experiment: Mice implanted with GBM neurospheres (M1123), subcutaneous tumor model; assay type: in vivo

Papp at 30 min [1] [×10⁻⁶ cm/s]	SMILES	blood-brain barrier integrity (blood-brain barrier; FIG. 3)	impact on cell viability (blood-brain barrier; blood-brain barrier model, FIG. 3/4)	blood-brain barrier penetration (in words) (blood-brain barrier)	blood-brain barrier penetration (in words) (blood-brain barrier; listed as Hydroxyureamethyl-acylfulvene)	tumor response [2]	mice with no measurable tumors 12 days post the last dosing ([2]; 5 mice treated)	tumor response (GBM neurospheres (M1123); 4 every other day intravenous doses at 4 mg/kg)	mice with no measurable tumor after 12 days of the last dose (GBM neurospheres (M1123); 4 every other day intravenous doses at 4 mg/kg, four mice)	tumor volume relative to vehicle-treated control mice (physical observation) (GBM neurospheres (M1123); FIG. 7)
172	Cn1nnc2c(C(N)=O)ncn2c1=O [TMZ, temozolomide, reference compound]									
	CC1=C(CN(O)C(N)=O)C2=C(C)C3(CC3)[C@@](C)(O)C(=O)C2=C1 [LP-184, hydroxyureamethyl-acylfulvene]	not compromised	insignificant impact on cell viability	as effective as TMZ in penetrating the blood-brain barrier	shown to cross the blood-brain barrier	complete tumor regression	all 5 mice	complete tumor regression	Three of four mice	clear tumor growth inhibition
